Measurements taken from ChEMBL document CHEMBL1127879, “A conformationally restrained series of AT1-selective angiotensin II antagonists” (Bioorg Med Chem Lett, 1994).

Molecular target: T1, Angiotensin II receptor (AT-1) type-1 (Rattus norvegicus, UniProt P29089+P25095)
T1 sequence (P29089 whole entry): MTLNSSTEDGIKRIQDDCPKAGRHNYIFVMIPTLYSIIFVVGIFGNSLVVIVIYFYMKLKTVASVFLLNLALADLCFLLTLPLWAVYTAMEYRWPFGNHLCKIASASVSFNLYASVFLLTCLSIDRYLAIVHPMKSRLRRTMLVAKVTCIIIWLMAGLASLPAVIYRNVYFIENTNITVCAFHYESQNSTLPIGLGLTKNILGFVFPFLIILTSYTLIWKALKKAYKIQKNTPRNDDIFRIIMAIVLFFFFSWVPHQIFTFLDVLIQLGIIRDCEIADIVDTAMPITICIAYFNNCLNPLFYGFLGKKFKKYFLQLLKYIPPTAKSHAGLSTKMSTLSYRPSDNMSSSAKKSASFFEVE
T1 sequence (P25095 whole entry): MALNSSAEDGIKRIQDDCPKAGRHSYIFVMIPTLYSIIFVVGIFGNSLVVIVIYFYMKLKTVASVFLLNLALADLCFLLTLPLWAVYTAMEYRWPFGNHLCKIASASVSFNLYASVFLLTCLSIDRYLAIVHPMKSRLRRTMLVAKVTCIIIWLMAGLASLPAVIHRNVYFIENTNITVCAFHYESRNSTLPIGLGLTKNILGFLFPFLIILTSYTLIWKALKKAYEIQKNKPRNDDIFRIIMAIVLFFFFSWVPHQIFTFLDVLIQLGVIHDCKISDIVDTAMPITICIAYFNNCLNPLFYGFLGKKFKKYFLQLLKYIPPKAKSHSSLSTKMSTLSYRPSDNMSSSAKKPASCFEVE
Assay: Binding affinity against Angiotensin II receptor, type 1 using [125I]Sar-Ile8-AII in rat liver membranes
Type: cell membranes, Membrane

IC50 [nM] | Compound
0.2 | Cc1cc(C)c2nc(C3CC3)n(C3CCc4cc(-c5ccccc5-c5nn[nH]n5)ccc43)c2n1 (stereo not drawn)
120 | CCc1nc2c(C)ccnc2n1C1CCc2cc(-c3ccccc3-c3nn[nH]n3)ccc21 (stereo not drawn)
14 | CCCc1nc2c(C)cc(C)nc2n1C1CCc2cc(-c3ccccc3-c3nn[nH]n3)ccc21 (stereo not drawn)
220 | CCc1nc2c(C)cc(C)nc2n1C1CCCCc2cc(-c3ccccc3-c3nn[nH]n3)ccc21 (stereo not drawn)
11 | CCc1nc2c(C)cc(C)nc2n1C1CCc2cc(-c3ccccc3-c3nn[nH]n3)ccc21 (stereo not drawn)
120 | CCc1nc2c(C)cc(C)nc2n1C1CCCc2cc(-c3ccccc3-c3nn[nH]n3)ccc21 (stereo not drawn)
30 | CCCCc1nc2c(C)cc(C)nc2n1C1CCc2cc(-c3ccccc3-c3nn[nH]n3)ccc21 (stereo not drawn)
70 | Cc1cc(C)c2nc(C(C)C)n(C3CCc4cc(-c5ccccc5-c5nn[nH]n5)ccc43)c2n1 (stereo not drawn)
